Read-outs that look alike come from different tables or passages of the source.
Assays:
PDK-3 = target: T1, PDK-3 (Homo sapiens, UniProt Q15120); test: DELFIA-based enzyme functional assay (E1 substrate), PDK-3; assay type: biochemical; conditions: data not shown
T1 construct: PDK-3: residues 9-406; made in house; host or cells: E. coli BL21

[1] = tested on: PDC activity in PC-3 cells; test: Cellular PDC activity assay, PC-3; assay type: cell-based; conditions: magnitude greater for VER-246608
Procedure: (§1) Cellular PDC activity was determined using a commercial assay kit (Abcam) as per the manufacturer's instructions. Briefly, PC-3 and K562 cell suspensions at a density of 1×10^6 and 1.5×10^6, respectively, were transferred to 96 well plates (250 μL per well). Cells were pre-treated with compound or DMSO for 1 h in a CO2incubator at 37°C followed by cell lysis in 250 μL of a 9:1 dilution of assay kit detergent (containing 20 mM NaF and 40 μM of the PDK inhibitor VER-246550) for 10 min on ice. The cellular debris was then pelleted at 1000g for 10 min. A 200 μL aliquot of each lysate was then transferred to the immunocapture microplate. PDC reaction rates were determined from the slope of the reaction curves and expressed as a percentage of the vehicle (DMSO) control values.

[2] = tested on: PDC activity in K562 cells; test: Cellular PDC activity assay, K562; assay type: cell-based; conditions: 20 μM VER-246608 or […] Nov3r
Procedure: as §1, with “values. […]” for “values.”
(§2) transformed and additional cancer cell lines. A, The indicated cell lines were seeded into […]
(§3) relevant media containing either 2 g/L D-glucose or D-galactose for 96 h. Cell mass was determined using the sulforhodamine B assay. Results are expressed as the percentage change vs DMSO control values for cells incubated in D-glucose containing media. […]
analysis of pyruvate dehydrogenase (PDH) activity in cell lysates using a commercially available ELISA-based assay kit (Abcam). Results are expressed as a percentage of the PDH reaction rate in DMSO treated cells. […]

[3] = tested on: hTert immortalized human foreskin fibroblast (HFF) cell line; test: Glycolytic activity (L-lactate, D-glucose) in HFF cells; assay type: cell-based; conditions: 6 h, 0.25 g/L D-glucose, 2% dialyzed FCS; VER-246608 effect only at top concentration (27 μM)
Procedure: Pyruvate, L-lactate, D-glucose and L-alanine levels were determined using commercially available assay kits (Abcam) as per the manufacturer's instructions. […]
as §2
as §3, with “media. B, HFF cells were seeded into 96 well plates at a density of 1x10^4 cells per well in 96 well plates.” for “media.”
and Nov3r (in DMEM media containing 0.25 g/L D-glucose and 2% dialyzed FCS) for 6 h, followed by the removal of cell culture media for analysis of L-lactate and D-glucose. At the end of the experiment the remaining media was aspirated and the cells transferred to a - 80 °C freezer for subsequent analysis of p(Ser293)E1α levels by MSD ELISA. C. K562 cells […]
analysis of pyruvate dehydrogenase (PDH) activity in cell lysates using a commercially available ELISA-based assay kit (Abcam). Results are expressed as a percentage of the PDH reaction rate in DMSO treated cells. D, Jurkat cells ([…]) were pre-treated in RPMI- […]
suspension in glucose-free RPMI-1640 media supplemented with 2 g/L 1,6-13C-D-Glucose followed by kinetic acquisition of 13C-NMR spectra at 10 min intervals. […]

PDK-1 [4] = target: T2, PDK-1 (Homo sapiens, UniProt Q15118); conditions: read-out: In vitro functional (E1/E2), IC50, PDK-1; E1/E2 as the substrate
T2 sequence (Q15118 30-436): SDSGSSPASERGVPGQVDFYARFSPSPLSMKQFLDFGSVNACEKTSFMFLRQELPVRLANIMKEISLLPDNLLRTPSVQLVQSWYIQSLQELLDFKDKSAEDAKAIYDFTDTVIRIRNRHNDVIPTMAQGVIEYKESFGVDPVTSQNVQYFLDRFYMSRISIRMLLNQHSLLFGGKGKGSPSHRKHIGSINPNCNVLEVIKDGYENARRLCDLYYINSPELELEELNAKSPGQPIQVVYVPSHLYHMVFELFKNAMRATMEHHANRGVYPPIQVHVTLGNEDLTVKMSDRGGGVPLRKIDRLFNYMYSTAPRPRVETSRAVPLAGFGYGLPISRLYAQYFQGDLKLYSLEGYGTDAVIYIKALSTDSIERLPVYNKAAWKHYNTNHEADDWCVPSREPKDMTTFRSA
Procedure: DELFIA assay reagents (assay buffer, wash buffer, enhancement solution and anti-rabbit IgG-Eu-N1 secondary antibody) and plates were obtained from Perkin Elmer (MD, USA). Test compounds were subjected to a 10 point tripling dilution in DMSO, diluted in MOPS buffer (60mM MOPS pH7.2, 15 mM Magnesium acetate, 60 mM KCl) and added to the enzyme mix (10 nM PDK-1, 2 and 3 or 20 nM PDK-4, 300nM E1, 0.1 mg/mL BSA, 1 mM DTT) in 96-well V-bottom plates (Greiner). The reaction was initiated by the addition of ATP to a final concentration of 5 μM followed by a 1 h incubation at 30°C. The reaction was then stopped by the addition of STOP solution (50 mM Carbonate-Bicarbonate Buffer, pH 9.6), and then transferred to 96 well DEFLIA yellow plates. The plates were then sealed and incubated o/n at 4°C. Detection and quantification of p(Ser^293)E1α levels was then achieved through incubation with anti-p(Ser^293)E1α primary antibody (Genescript) followed by anti-rabbit secondary IgG-Eu-N1 antibody and addition of enhancement solution as per the manufacturer's instructions. The time-resolved fluorescent signal was then measured using a Victor2 plate reader (Perkin Elmer). The data was fitted by non-linear regression using XLFIT4 within a custom ABASE (IDBS) protocol in order to determine IC50 values.

PDK-1 [5] = target: T2, PDK-1; test: Isothermal calorimetry (ITC) binding affinity; design: PDK-1: residues 30-436; made in house; host or cells: E. coli BL21
PDK-1 [6] = target: T2, PDK-1; test: PDK-1 fluorescence polarization assay (fluorescein-labelled ATP site probe); assay type: binding; design: PDK-1: residues 30-436; made in house; host or cells: E. coli BL21; conditions: fluorescence polarization; mean of n determinations; read-out: PDK-1 FP, IC50
Procedure: carbamoyl]-2-(6-hydroxy-3-oxo-3H-xanthen-9-yl)benzoic acid), which binds to the ATP site of PDK resulting in an increase in anisotropy.
The HSP-90ß FP assay was conducted as previously described.

Jurkat cells = test: 13C-NMR metabolite analysis in Jurkat cells; assay type: cell-based; conditions: 20 μM
Procedure: Jurkat cells (5 X 106) were pre-treated in RPMI-1640 media containing either DMSO or 20
μM VER-00246608 for 1 h. The cells were then pelleted and washed in PBS containing
DMSO/compound and re-suspended in glucose-free RPMI-1640 media containing 10% FCS
cell suspension was then transferred to a 5mm NMR tube and placed into the sample probe of
a Bruker DRX600 NMR spectrometer. The probe was pre-equilibrated to 37°C and shimmed
on a matched sample. Pulses were also calibrated on the matched sample. The sample
containing the Jurkat cells was rapidly shimmed and data acquisition initiated within 15
1D 13C NMR spectra (240ppm sweep width, 64k acquired points, 64 scans) were then
acquired at 10 minute intervals up to 2 h. The glucose and lactate peaks were converted to
concentrations by referencing to a cell-free reference sample containing the same
concentration of 1,6-13C-D-Glucose (11 mM).
D, Jurkat cells (5 X 106) were pre-treated in RPMI-
suspension in glucose-free RPMI-1640 media supplemented with 2 g/L 1,6-13C-D-Glucose followed by kinetic acquisition of 13C-NMR spectra at 10 min intervals. Representative curves from duplicate treatments are shown.

[7] = tested on: PC-3, SW-1088, UM-22B and MEF cell lines; test: Sulforhodamine B cytotoxicity, cell line set; assay type: cell-based
Procedure: Compound cytotoxicity was determined using the Sulforhodamine B assay for cells cultured as a monolayer as described previously (45). For spheroid growth experiments, PC-3 cells were seeded (500 cells/well) into 96 well round bottom plates (Corning Costar 7007) in RPMI-1640 media containing 2.5% (w/v) Matrigel (BD Biosciences). […] Spheroid volumes were determined by obtaining diameter measurements from images taken on a Zeiss Axiovert 200M inverted microscope using the axiovision software.

[8] = tested on: PC-3, K562, Jurkat and MDA-MD-453 cell lines; test: Growth in D-glucose or D-galactose media (Sulforhodamine B); assay type: cell-based; conditions: 20 μM, 96 h
Procedure: Experiments were performed in triplicate (A & C) or quadruplicate (B). Error bars represent standard deviation of the mean (*, P < 0.01).

PC-3 cells [9] = test: Potentiation assay with cancer therapeutic agents, PC-3; assay type: cell-based
Procedure: (§4) The cells were then incubated for 120 h followed by cell mass determination using the Sulforhodamine B assay. […] Drug interactions were analyzed by the combination index (CI) method based on the method described by Chou. CI values <0.9 indicates synergism, 0.9 to 1.1 additivity, and >1.1 antagonism. The data was expressed in the form of Fa-CI simulation plot generated using calcusyn software (Biosoft). Potentiation assays were carried out as described previously.

ES-2 cells = test: Potentiation assay with doxorubicin, ES-2; assay type: cell-based
Procedure: as §4

PC-3 cells [10] = test: Combination index analysis and potentiation with β-Chloro-alanine; assay type: cell-based; conditions: 20 μM VER-246608
Procedure: as §4

T1 sequence (Q15120 9-406): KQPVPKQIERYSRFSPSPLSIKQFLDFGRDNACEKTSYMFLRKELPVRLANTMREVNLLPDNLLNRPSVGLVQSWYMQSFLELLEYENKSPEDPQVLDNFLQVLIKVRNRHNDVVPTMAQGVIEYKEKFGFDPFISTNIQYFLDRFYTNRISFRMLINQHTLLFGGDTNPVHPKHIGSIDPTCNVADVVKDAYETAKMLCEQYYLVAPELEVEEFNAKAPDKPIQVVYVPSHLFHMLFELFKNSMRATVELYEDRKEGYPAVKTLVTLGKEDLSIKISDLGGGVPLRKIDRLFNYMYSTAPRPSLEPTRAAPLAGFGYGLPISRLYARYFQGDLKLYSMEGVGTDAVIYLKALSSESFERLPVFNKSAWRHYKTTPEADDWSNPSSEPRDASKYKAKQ

Stimulation of PDK-3 activity (PDK-3) | IC50 (PDK-1 [4]) [nM] | Kd (PDK-1 [5]) [nM] | IC50 (PDK-1 [6]) [nM] | SMILES | Increase in PDC activity [1] | Increase in PDC activity [2] | Effect on glycolytic activity in HFF cells [3] | Decrease in the rate of D-glucose consumption (Jurkat cells) [%] | Decrease in the rate of L-lactate production (Jurkat cells) [%] | Compound potency under hypoxic conditions ([7]; 0.1% O2) | Cytotoxicity (reduced cell mass) in standard culture ([7]; Sulforhodamine B assay, standard media) | Effect on growth in D-glucose or D-galactose containing media [8] | Potentiation of the remaining three agents (BEZ235, Cisplatin and 3-Bromopyruvate) (PC-3 cells [9]) | Potentiation of doxorubicin (PC-3 cells [9]; PC-3 cells) [fold] | Potentiation of doxorubicin (ES-2 cells) [fold] | Potentiation factor for β-Chloro-alanine (PC-3 cells [10])
approximately 2 fold | 3 | 8 | 83 | C[C@@H]1CN(C(=O)[C@](C)(O)C(F)(F)F)[C@@H](C)CN1C(=O)c1ccc(C#N)cc1 [Nov3r, reference compound] | an increase in PDC activity | an increase in PDC activity | did not alter glycolytic activity |  |  |  |  |  |  |  |  | 
 |  |  |  | Cc1cnc(Cl)nc1-c1ccc(N(Cc2ccc(CNC(=O)C(F)F)cc2)C(=O)c2ccc(O)cc2O)cc1 [VER-246608] | an increase in PDC activity | an increase in PDC activity | decrease in extracellular L-lactate and D-glucose levels | 23 | 25 | no evidence of augmented compound potency | weakly cytotoxic | little to no effect | No evidence of potentiation | 2 | 3 | 1.8 ± 0.06
